Key:
[1] = tested on: AP-1 induced transcriptional activity; test: Cellular Transrepressional Assay (AP-1 luciferase reporter in A549 cells, PMA-activated); assay type: cell-based; conditions: Homo sapiens, A549, 7 h, A549 cells with 7x AP-1 luciferase reporter, 10 ng/ml PMA, read-out: AP-1 (EC50, nM) (Cellular Transrepression Assay)
Summary of the method: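 Test molecules spanning 0.1 nM to 40 μM were co-incubated 7 h with 10 ng/ml PMA in A549 cells stably carrying a 7× AP-1-driven luciferase plasmid. Repression, as % reduction of PMA-alone luminescence measured 10 min after reagent addition, was curve-fitted to give EC50s.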

[2] = target: T1, human full-length glucocorticoid receptor (Homo sapiens, UniProt P04150); test: Glucocorticoid Receptor Binding Assay (II), fluorescence polarization competitor kit (Fluormone GS1); conditions: cell lysate with recombinant human full-length GR, 1 nM Fluormone GS1, FP
T1 construct: a cell lysate containing recombinantly expressed human full-length glucocorticoid receptor; purchased PanVera Co., Madison, Wis; P2816
T1 sequence (P04150 1-777): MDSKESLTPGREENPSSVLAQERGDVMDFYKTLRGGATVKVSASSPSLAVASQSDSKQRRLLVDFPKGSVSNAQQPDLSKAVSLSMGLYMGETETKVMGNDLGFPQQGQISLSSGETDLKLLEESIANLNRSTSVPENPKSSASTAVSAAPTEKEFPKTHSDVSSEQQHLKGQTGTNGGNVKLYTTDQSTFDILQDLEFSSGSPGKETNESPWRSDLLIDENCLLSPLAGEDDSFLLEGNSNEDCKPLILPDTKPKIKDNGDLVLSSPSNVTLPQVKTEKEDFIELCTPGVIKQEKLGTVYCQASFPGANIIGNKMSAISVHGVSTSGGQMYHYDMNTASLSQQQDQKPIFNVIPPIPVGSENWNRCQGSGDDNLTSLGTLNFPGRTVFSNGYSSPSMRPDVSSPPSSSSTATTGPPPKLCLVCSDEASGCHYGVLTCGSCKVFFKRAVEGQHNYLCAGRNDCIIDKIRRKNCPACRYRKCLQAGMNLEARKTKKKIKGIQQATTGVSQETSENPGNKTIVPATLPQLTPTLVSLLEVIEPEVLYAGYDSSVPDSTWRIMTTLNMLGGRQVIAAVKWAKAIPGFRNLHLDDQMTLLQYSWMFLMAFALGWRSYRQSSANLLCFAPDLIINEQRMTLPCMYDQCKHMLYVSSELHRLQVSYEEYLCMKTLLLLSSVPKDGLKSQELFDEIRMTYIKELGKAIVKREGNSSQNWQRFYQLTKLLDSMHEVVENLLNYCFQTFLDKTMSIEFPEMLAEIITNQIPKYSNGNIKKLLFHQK
Procedure: In order to measure the binding of compounds on the glucocorticoid receptor a commercially available kit was used (Glucocorticoid receptor competitor assay kit, PanVera Co., Madison, Wis., P2816). Briefly, a cell lysate containing recombinantly expressed human full-length glucocorticoid receptor was mixed with a fluorescently labeled glucocorticoid (1 nM Fluormone GS1) in the presence or absence of test compound. After one hour at room temperature, the fluorescence polarization (FP) of the samples were measured.

| Compound | EC50 [1] [nM] | Ki [2] [nM] |
| --- | --- | --- |
| CC(C)(C(=O)NC1CCOCC1)C(Cc1ccccc1)c1ccc2c(cnn2-c2ccc(F)cc2)c1 (centres unmarked) [Example 132, 3-(1-(4-fluorophenyl)-1H-indazol-5-yl)-2,2-dimethyl-4-phenyl-N-(tetrahydro-2H-pyran-4-yl)butanamide] | > 10000 | 7.8 |
| CC(C)(C(=O)NC1CCNCC1)C(Cc1ccccc1)c1ccc2c(cnn2-c2ccc(F)cc2)c1 (centres unmarked) [Example 133, 3-(1-(4-fluorophenyl)-1H-indazol-5-yl)-2,2-dimethyl-4-phenyl-N-(piperidin-4-yl)butanamide] | > 10000 | 153 |
| CC(C)(C(=O)N[C@@H]1CCC[C@H]1O)[C@@H](c1ccccc1)c1ccc2c(cnn2-c2ccc(F)cc2)c1 [Example 135, (S)-3-(1-(4-fluorophenyl)-1H-indazol-5-yl)-N-(2-hydroxycyclopentyl)-2,2-dimethyl-3-phenylpropanamide] | 40 | 0.6 |
| CC(C)(C(=O)Nc1nccs1)C(Cc1ccccc1)c1ccc2c(cnn2-c2ccc(F)cc2)c1 (centres unmarked) [Example 138, 3-(1-(4-Fluorophenyl)-1H-indazol-5-yl)-2,2-dimethyl-4-phenyl-N-(thiazol-2-yl)butanamide] | 223 | 1.9 |
| CC(C)(C(=O)Nc1nncs1)C(OCc1ccccc1)c1ccc2c(cnn2-c2ccc(F)cc2)c1 (centres unmarked) [Example 140, 3-(Benzyloxy)-3-(1-(4-fluorophenyl)-1H-indazol-5-yl)-2,2-dimethyl-N-(1,3,4-thiadiazol-2-yl)propanamide] | 4 | 1.6 |
| CCCC(C(=O)Nc1nncs1)C(c1ccccc1)c1ccc2c(cnn2-c2ccc(F)cc2)c1 (centres unmarked) [Example 143, 2-((1-(4-fluorophenyl)-1H-indazol-5-yl)(phenyl)methyl)-N-(1,3,4-thiadiazol-2-yl)pentanamide] | 2 | 1.7 |
| O=C(Nc1nncs1)C(Cc1ccccc1)C(c1ccccc1)c1ccc2c(cnn2-c2ccc(F)cc2)c1 (centres unmarked) [Example 146, 2-benzyl-3-(1-(4-fluorophenyl)-1H-indazol-5-yl)-3-phenyl-N-(1,3,4-thiadiazol-2-yl)propanamide] | 2 | 1.5 |
| O=C(Nc1nncs1)C(C1CCCC1)C(c1ccccc1)c1ccc2c(cnn2-c2ccc(F)cc2)c1 (centres unmarked) [Example 147, 2-cyclopentyl-3-(1-(4-fluorophenyl)-1H-indazol-5-yl)-3-phenyl-N-(1,3,4-thiadiazol-2-yl)propanamide] | 2 | 2.3 |
| CCC(CC)(C(=O)Nc1nncs1)C(c1ccccc1)c1ccc2c(cnn2-c2ccc(F)cc2)c1 (centres unmarked) [Example 149, 2-ethyl-2-((1-(4-fluorophenyl)-1H-indazol-5-yl)(phenyl)methyl)-N-(1,3,4-thiadiazol-2-yl)butanamide] | 130 | 4.7 |
| O=C(Nc1nncs1)C1(C(c2ccccc2)c2ccc3c(cnn3-c3ccc(F)cc3)c2)CCCCC1 (centres unmarked) [Example 150, 1-((1-(4-fluorophenyl)-1H-indazol-5-yl)(phenyl)methyl)-N-(1,3,4-thiadiazol-2-yl)cyclohexanecarboxamide] | 13 | 4 |
| COC(=O)c1ccc(C(c2ccc3c(cnn3-c3ccc(F)cc3)c2)C(C)C(=O)Nc2nncs2)cc1 (centres unmarked) [Example 153, Methyl 4-(3-(1,3,4-thiadiazol-2-ylamino)-1-(1-(4-fluorophenyl)-1H-indazol-5-yl)-2-methyl-3-oxopropyl)benzoate] | 27 | 4.3 |
| CC(=O)OCC(C)(C(=O)Nc1nncs1)C(c1ccccc1)c1ccc2c(cnn2-c2ccc(F)cc2)c1 (centres unmarked) [Example 154, 3-(1,3,4-Thiadiazol-2-ylamino)-2-((1-(4-fluorophenyl)-1H-indazol-5-yl)(phenyl)methyl)-2-methyl-3-oxopropyl acetate] | 15 | 2.6 |
| CC(CO)(C(=O)Nc1nncs1)C(c1ccccc1)c1ccc2c(cnn2-c2ccc(F)cc2)c1 (centres unmarked) [Example 155, 3-(1-(4-Fluorophenyl)-1H-indazol-5-yl)-2-(hydroxymethyl)-2-methyl-3-phenyl-N-(1,3,4-thiadiazol-2-yl)propanamide] | 1770 | 4.3 |
| CC(C)(C(=O)Nc1nncs1)[C@@H](c1ccccc1)c1ccc2c(cnn2-c2ccc(F)cc2N)c1 [Example 159, (3S)-3-(1-(2-Amino-4-fluorophenyl)-1H-indazol-5-yl)-2,2-dimethyl-3-phenyl-N-(1,3,4-thiadiazol-2-yl)propanamide] | 73 | 0.35 |

Further lines, results first:

| EC50 [1] [nM] | Ki [2] [nM] | Compound |
| --- | --- | --- |
| 106 | 0.87 | CC(C)(C(=O)NC1CCC1)C(Cc1ccccc1)c1ccc2c(cnn2-c2ccc(F)cc2)c1 (centres unmarked) [Example 129, N-cyclobutyl-3-(1-(4-fluorophenyl)-1H-indazol-5-yl)-2,2-dimethyl-4-phenylbutanamide] |
| > 10000 | 6 | CC(C)(CO)CNC(=O)C(C)(C)C(Cc1ccccc1)c1ccc2c(cnn2-c2ccc(F)cc2)c1 (centres unmarked) [Example 134, 3-(1-(4-fluorophenyl)-1H-indazol-5-yl)-N-(3-hydroxy-2,2-dimethylpropyl)-2,2-dimethyl-4-phenylbutanamide] |
| 833 | 11 | Cn1cnc(NC(=O)CC(c2ccccc2)c2ccc3c(cnn3-c3ccc(F)cc3)c2)n1 (centres unmarked) [Example 137, 3-(1-(4-Fluorophenyl)-1H-indazol-5-yl)-N-(1-methyl-1H-1,2,4-triazol-3-yl)-3-phenylpropanamide] |
| 2500 | 4.7 | CC(C)/C=C(\c1ccc2c(cnn2-c2ccc(F)cc2)c1)C(C)(C)C(=O)Nc1nncs1 [Example 139, (E)-3-(1-(4-Fluorophenyl)-1H-indazol-5-yl)-2,2,5-trimethyl-N-(1,3,4-thiadiazol-2-yl)hex-3-enamide] |
| 0.55 | 1.1 | CCC(C(=O)Nc1nncs1)C(c1ccccc1)c1ccc2c(cnn2-c2ccc(F)cc2)c1 (centres unmarked) [Example 142, 2-((1-(4-Fluorophenyl)-1H-indazol-5-yl)(phenyl)methyl)-N-(1,3,4-thiadiazol-2-yl)butanamide] |
| 2 | 2 | CC(C)C(C(=O)Nc1nncs1)C(c1ccccc1)c1ccc2c(cnn2-c2ccc(F)cc2)c1 (centres unmarked) [Example 144, 2-((1-(4-fluorophenyl)-1H-indazol-5-yl)(phenyl)methyl)-3-methyl-N-(1,3,4-thiadiazol-2-yl)butanamide] |
| 6 | 6.4 | O=C(Nc1nncs1)C(C1CCCCC1)C(c1ccccc1)c1ccc2c(cnn2-c2ccc(F)cc2)c1 (centres unmarked) [Example 148, 2-cyclohexyl-3-(1-(4-fluorophenyl)-1H-indazol-5-yl)-3-phenyl-N-(1,3,4-thiadiazol-2-yl)propanamide] |
| 135 | 22 | CC(C)(C(=O)Nc1nncs1)[C@@H](c1ccccc1)c1ccc2c(cnn2-c2ccc(F)cc2C(N)=O)c1 [Example 156, 2-(5-((S)-3-(1,3,4-Thiadiazol-2-ylamino)-2,2-dimethyl-3-oxo-1-phenylpropyl)-1H-indazol-1-yl)-5-fluorobenzamide] |
| 2500 | 825 | CN(C)C(=O)c1cc(F)ccc1-n1ncc2cc([C@H](c3ccccc3)C(C)(C)C(=O)Nc3nncs3)ccc21 [Example 158, 2-(5-((S)-3-(1,3,4-Thiadiazol-2-ylamino)-2,2-dimethyl-3-oxo-1-phenylpropyl)-1H-indazol-1-yl)-5-fluoro-N,N-dimethylbenzamide] |
| 234 | 25 | CN(C)C(=O)Nc1cc(F)ccc1-n1ncc2cc([C@H](c3ccccc3)C(C)(C)C(=O)Nc3nncs3)ccc21 [Example 160, (3S)-3-(1-(2-(3,3-Dimethylureido)-4-fluorophenyl)-1H-indazol-5-yl)-2,2-dimethyl-3-phenyl-N-(1,3,4-thiadiazol-2-yl)propanamide] |
| 5000 | 32 | CC(C)(C(=O)Nc1nncs1)[C@@H](c1ccccc1)c1ccc2c(cnn2-c2ccc(F)cc2NC(N)=O)c1 [Example 161, (3S)-3-(1-(4-Fluoro-2-ureidophenyl)-1H-indazol-5-yl)-2,2-dimethyl-3-phenyl-N-(1,3,4-thiadiazol-2-yl)propanamide] |
